According to patent publication US7820689B2, “Methods and compositions for preventing or treating cardiovascular disease” (priority 2006, dated 2010):

Tests used:
[1] = tested on: TNF-α production from the THP-1 cell culture after LPS stimulation; test: LPS-induced TNF-α production in PMA-differentiated THP-1 macrophage culture (ELISA); format: cell-based, human; settings: for TNFα in medium: LPS 100 ng/mL, LPS alone 8.02±0.42; for TNF-α production after LPS: 1 h before 100 ng/mL LPS, 24 h
Experimental: (§1) THP-1 cells were grown in the RPMI-1640 medium containing 10% fetal bovine serum at 37° C. in 5% CO2. The cells were differentiated to macrophages after treatment of the culture with 100 nM PMA for 24 hours. The cell suspension (5×10^5) was added in 0.5 mL into each well of the tissue culture plates. For each experiment, naloxone was prepared immediately before use. LPS was dissolved in sterile water and stored at −70° C. in aliquots. LDL was isolated from human endotoxin-free heparin plasma and was oxidized using CuSO4. In brief, LDL (1 mL, 1 mg/mL) was dialyzed in 500 mL phosphate-buffered saline (PBS, pH 7.4) overnight. Copper sulfate was added to a final concentration of 5 μM, and the LDL was allowed to oxidize at room temperature for 24 hours.
The TNF-α level in the supernatant was determined by ELISA.
(§2) The supernatants were harvested and the TNF-α, IL-6, and MCP-1 levels were determined by ELISA. Superoxide production in the THP-1 cell culture was measured by lucigenin-enhanced chemiluminescence as described previously (Khadour F H, Panas D, Ferdinandy P, et al. Am J Physiol Heart Circ Physiol, 28:H1108-15 2002). LPS-treated THP-1 cells were treated with PBS containing 1.25 mM lucigenin, and counts were obtained for a 10-minute period in a luminometer (Berthold Technologies, Germany) as relative light units (RLU) emitted. Background counts determined in cell-free preparations were subtracted. Superoxide levels were reported as RLU per 10 minutes and were normalized to the volume (mL) of cell suspension added (i.e., RUL/10 min/mL).
To investigate the DM effect on macrophage activation, determined the effective DM concentrations were first needed. In a pilot experiment, the effective DM concentration that inhibited TNF-α production from macrophages was examined. […] The THP-1 cell culture was pretreated for 1 hour with various concentrations of DM (1-10^−8 μM) prior to treatment with 100 ng/mL LPS for 24 hours. The TNF-α level in the supernatant was determined by ELISA. […] One μM DM could reduce TNF-α production up to 44 percent in the THP-1 cell culture after LPS stimulation (Table 3). Therefore, subsequent experiments were performed with these effective DM concentrations (0.01, 0.1, and 1 μM).

[2] = tested on: IL-6 release from THP-1 cells after LPS stimulation; test: LPS-induced IL-6 release in THP-1 macrophage culture (ELISA); format: cell-based, human
Experimental: as §1, §2

[3] = tested on: TNF-α release from THP-1 cells after oxLDL stimulation; test: oxLDL-induced TNF-α release in THP-1 macrophage culture (ELISA); format: cell-based, human; settings: for TNFα in medium: oxLDL 10 μg/mL, oxLDL alone 1.70±0.06; for TNF-α in medium: oxLDL, oxLDL alone 2.64±0.61
Experimental: as §1, §2

THP-1 cells = test: MTT cell viability assay; format: cell-based, human; settings: with or without LPS
Experimental: Cell viability was determined with the 3 (4,5-dimethylthiazol-2-yl) 2,5-diphenyltetrazolium bromide (MTT) assay in each treatment group described above. Briefly, fresh medium was added to cells together with 10% MTT (5 mg/mL). Each plate was maintained at 37° C. for 2 hours and subsequently formazan crystals were dissolved in DMSO. Absorbance was read at a wavelength of 550 nm using a SPECTRAmax PLUS^384 spectrophotometer (Molecular Devices, CA, USA).

C57BL/6 mice = test: Carotid artery ligation vascular remodeling model, morphometry; format: in vivo; settings: for lumen area / neointima area: 28 days; for lumen area: PBS 12859±7258; for neointima area: PBS 33623±9377; for neointima/media (N/M) ratio: 28 days after surgery, controls 1.4±0.6
From the text: Adult C57BL/6 mice (8-12 weeks) were anesthetized by intraperitoneal injection of sodium pentobarbital. The left common carotid artery was isolated and ligated completely with a 6-0 silk suture near the carotid bifurcation. […] After completing the treatment the animals were sacrificed and the segment of the left common carotid artery just proximal to the ligation was excised, fixed in 4% paraformaldehyde, and embedded in paraffin. Five transverse sections per animal were cut at 100 μm intervals and stained with hematoxylin-eosin. The borders of the internal lumen, internal elastic lamina (IEL), and external elastic lamina (EEL) were traced on a digitizing board using Meta Imaging Series 5.0 software ([…].). The luminal, IEL, and EEL areas were measured. The neointima area was calculated by subtracting the luminal area from the IEL area, and the media area was calculated by subtracting the IEL area from the EEL area. The total vascular area was represented by EEL area. The ratio of neointima to media area (N/M ratio) was calculated. Average values were obtained from morphometric analysis of each section of the animal.
Data were given as mean±SD. The Mann-Whitney U test was used to compare continuous variables between the two groups. […] All statistical analyses were performed using SPSS 12.0 (SPSS Inc. Chicago, Ill., USA). The statistical significance level was set at P<0.05, two-tailed.

[4] = tested on: TNF-α production from the THP-1 cell culture after LPS stimulation; test: LPS-induced TNF-α production in PMA-differentiated THP-1 macrophage culture (ELISA); format: cell-based, human; settings: for TNF-α production after LPS: 1 h before 100 ng/mL LPS, 24 h; for TNF-α in medium: LPS, LPS alone 8.85±0.81
microglia = settings: cited from earlier work

In the case of C=CCN1CC[C@]23c4c5ccc(O)c4O[C@H]2C(=O)CC[C@@]3(O)[C@H]1C5 [Naloxone, 17-allyl-4,5α-epoxy-3,14-dihydroxymorphinan-6-one], the TNFα in medium ([1]; 0.1 μM pretreatment) was 4.10 ± 0.37 ng/mL, the TNFα in medium ([1]; 1 μM pretreatment) was 4.41 ± 0.36 ng/mL and the “reduction of TNFα production” value ([1]; 0.01-1 μM, THP1 cell culture after LPS stimulation) was 50%. For the same compound, the IL-6 in medium ([2]; 0.01 μM pretreatment, LPS alone 5.02±0.14) was 3.74 ± 0.31 ng/mL, the IL-6 in medium ([2]; 0.1 μM pretreatment, LPS alone 5.02±0.14) was 3.28 ± 0.14 ng/mL and the IL-6 in medium ([2]; 1 μM pretreatment, LPS alone 5.02±0.14) was 3.44 ± 0.48 ng/mL. The TNFα in medium ([3]; 0.01 μM pretreatment) was 0.85 ± 0.12 ng/mL, the TNFα in medium ([3]; 0.1 μM pretreatment) was 0.62 ± 0.04 ng/mL and the TNFα in medium ([3]; 1 μM pretreatment) was 0.60 ± 0.05 ng/mL. The “cell viability (MTT)” value (THP-1 cells; 0.01, 0.1, or 1 μM naloxone) was “no significant changes of the cell viability”, the lumen area (C57BL/6 mice; 10 mg/kg/day) was 24475±5261 μm^2 and the neointima area (C57BL/6 mice; 10 mg/kg/day) was 20052±4372 μm^2. The lumen area (C57BL/6 mice; 20 mg/kg/day) was 26452±9024 μm^2, the neointima area (C57BL/6 mice; 20 mg/kg/day) was 14233±4040 μm^2 and the lumen area (C57BL/6 mice; 25 mg/kg/day) was 29650±5643 μm^2. For the same compound, the neointima area (C57BL/6 mice; 25 mg/kg/day) was 13865±3494 μm^2, the “Media area regression coefficient (naloxone)” value (C57BL/6 mice; Naloxone 10 mg/kg/day) was 2950 and the “Neointima area regression coefficient (naloxone)” value (C57BL/6 mice; Naloxone 10 mg/kg/day) was −13951. The “Total area regression coefficient (naloxone)” value (C57BL/6 mice; Naloxone 10 mg/kg/day) was −11000, the “Lumen area regression coefficient (naloxone)” value (C57BL/6 mice; Naloxone 10 mg/kg/day, Area = B1 + B2 (Naloxone) + B3 (Distance (mm))) was 12016 and the “Lumen area regression coefficient (naloxone)” value (C57BL/6 mice; Naloxone 20 mg/kg/day) was 14033. The “Media area regression coefficient (naloxone)” value (C57BL/6 mice; Naloxone 20 mg/kg/day) was 10001, the “Neointima area regression coefficient (naloxone)” value (C57BL/6 mice; Naloxone 20 mg/kg/day) was −19584 and the “Total area regression coefficient (naloxone)” value (C57BL/6 mice; Naloxone 20 mg/kg/day) was −9582. The “Lumen area regression coefficient (naloxone)” value (C57BL/6 mice; Naloxone 25 mg/kg/day) was 16993, the “Media area regression coefficient (naloxone)” value (C57BL/6 mice; Naloxone 25 mg/kg/day) was 8112 and the “Neointima area regression coefficient (naloxone)” value (C57BL/6 mice; Naloxone 25 mg/kg/day) was −20380. The “Total area regression coefficient (naloxone)” value (C57BL/6 mice; Naloxone 25 mg/kg/day) was −12267, the “influence of naloxone treatment in regression model of carotid remodeling” value (C57BL/6 mice; multiple regression, independent of the distance to ligation) was “had a statistically significant influence on the lumen, neointima, and total vascular areas” and the TNFα in medium ([4]; 0.01 μM pretreatment, LPS 100 ng/mL, LPS alone 8.02±0.42) was 4.28 ± 0.39 ng/mL. The “most effective naloxone concentration range” value ([4]; inhibition of TNF-α production, THP-1, LPS) was 0.01 to 1 µM, the “TNF-α production after LPS” value ([4]; naloxone pretreatment 1 μM) was 55 ± 2 % control and the “TNF-α production after LPS” value ([4]; naloxone pretreatment 10^−1 μM) was 51 ± 6 % control. For the same compound, the “TNF-α production after LPS” value ([4]; naloxone pretreatment 10^−2 μM) was 53 ± 6 % control, the “TNF-α production after LPS” value ([4]; naloxone pretreatment 10^−3 μM) was 67 ± 3 % control and the “TNF-α production after LPS” value ([4]; naloxone pretreatment 10^−4 μM) was 74 ± 7 % control. For the same compound, the “TNF-α production after LPS” value ([4]; naloxone pretreatment 10^−5 μM) was 93 ± 4 % control, the “TNF-α production after LPS” value ([4]; naloxone pretreatment 10^−6 μM) was 90 ± 10 % control and the “neuron protection / microglia activation” value (microglia; 1 μM naloxone, Liu et al. 2000) was “could protect neurons through inhibition of microglia activation”.
For COc1ccc2c(c1)[C@]13CCCC[C@@H]1[C@H](C2)N(C)CC3 [DM, (+)-3-methoxy-17-methyl-9α,13α,14α-morphinan], the TNF-α in medium ([1]; DM 0.01 μM pretreatment, LPS, LPS alone 8.85±0.81) was 6.93 ± 0.76 ng/mL, the “TNF-α production after LPS” value ([1]; DM pretreatment 1 μM) was 56 ± 10 % control and the “TNF-α production after LPS” value ([1]; DM pretreatment 10^−2 μM) was 74 ± 4 % control. The “TNF-α production after LPS” value ([1]; DM pretreatment 10^−6 μM) was 83 ± 3 % control, the “reduction of TNF-α production” value ([1]; One μM DM, THP-1 cell culture after LPS stimulation) was “up to 44%” and the “most effective DM concentrations that suppressed macrophage TNF-α production” value ([1]; THP-1, after LPS stimulation) was 0.01 to 1 µM. For the same compound, the IL-6 in medium ([2]; DM 0.01 μM pretreatment, LPS alone 9.53±1.95) was 6.22 ± 2.46 ng/mL, the IL-6 in medium ([2]; DM 0.1 μM pretreatment, LPS alone 9.53±1.95) was 6.21 ± 1.89 ng/mL and the IL-6 in medium ([2]; DM 1 μM pretreatment, LPS alone 9.53±1.95) was 5.36 ± 1.76 ng/mL. For the same compound, the TNF-α in medium ([3]; DM 0.01 μM pretreatment) was 1.80 ± 0.53 ng/mL, the TNF-α in medium ([3]; DM 0.1 μM pretreatment) was 1.75 ± 0.33 ng/mL and the TNF-α in medium ([3]; DM 1 μM pretreatment) was 1.77 ± 0.42 ng/mL. The “cell viability (MTT)” value (THP-1 cells; 0.01, 0.1, or 1 μM DM) was “no significant changes of the cell viability”, the “neointima/media (N/M) ratio” value (C57BL/6 mice; DM 5 mg/kg/day 4 weeks, P=NS) was 1.1±0.7 and the “neointima/media (N/M) ratio” value (C57BL/6 mice; DM 10 mg/kg/day 4 weeks) was 0.7±0.3. The “neointima/media (N/M) ratio” value (C57BL/6 mice; DM 20 mg/kg/day 4 weeks) was 0.4±0.2, the “neointima/media (N/M) ratio” value (C57BL/6 mice; DM 40 mg/kg/day 4 weeks) was 0.5±0.2 and the TNF-α in medium ([4]; DM 0.1 μM pretreatment) was 6.42 ± 0.73 ng/mL. The TNF-α in medium ([4]; DM 1 μM pretreatment) was 5.85 ± 1.12 ng/mL, the “TNF-α production after LPS” value ([4]; DM pretreatment 10^−1 μM) was 72 ± 2 % control and the “TNF-α production after LPS” value ([4]; DM pretreatment 10^−4 μM) was 81 ± 9 % control. The “TNF-α production after LPS” value ([4]; DM pretreatment 10^−8 μM) was 95 ± 7 % control and the microglia activation (microglia; 1 μM DM, Liu et al. 2003) was “could inhibit microglia activation”.
